Test results: US11419878B2, “Medicine obtained by combining FXR agonist and ARB” (Intercept Pharmaceuticals, Inc., priority 2016, dated 2022)

Test system: human hepatic stellate cells (HHSC)
Test: HHSC proliferation inhibition, WST-1 cell proliferation assay
Assay type: cell-based
Settings: AT-II 10^-6M + LPS 10^-5M; ARB 10^-6M, obeticholic acid 5×10^-6M; 24 hours; WST-1 absorbance
Method: The various combined effects of obeticholic acid and three types of ARBs (losartan, valsartan, and candesartan) were confirmed in an in vitro cell system experiment. Specifically, using human hepatic stellate cells (HHSC), which are implicated in the main mechanism of progression of hepatic fibrosis in NASH, the effects of administration of obeticholic acid in combination with the three ARBs of inhibiting HHSC proliferation capacity and the expression of fibrosis markers were evaluated according to the following method. Human hepatic stellate cells (HHSC) (also referred to as human hepatic star cells) Obeticholic acid (obtained from Intercept Pharmaceuticals, Inc. via Sumitomo Dainippon Pharma Co., Ltd.) was used as an FXR agonist, and commercial losartan (potassium salt of losartan; referred to in this working example simply as “losartan”) and valsartan and candesartan ([…] of candesartan; referred to in this working example simply as “candesartan”) were used as ARBs. […] The direct action of inhibiting HIISC proliferation capacity was evaluated by means of a cell proliferation assay using WST-1 reagent. […] AT-II (10^-6M) Positive control group L […]): LPS 10^-5M) Positive control group AL ([…]): (10^-6M)+LPS (10^-5M) Obeticholic acid administration (G3): AT-II (10^-6M)+LPS (10^-5M)+obeticholic acid (5×10^-6M) ARB administration (G4): AT-II (10^-6M)+LPS (10^-5M)+ARB (10^-6M) Obeticholic acid+ARB combined administration (G5): AT-II (10^-6M)+LPS (10^-5M)+obeticholic acid (5×10^-6M)+ARB (10^-6M) 3) After the cells of the above groups (G1, G2A, G2L, G2AL, G3, G4, G5) were cultured for 24 hours, respective WST-1 cell proliferation assays were conducted, and the inhibitory effect of the pharmaceutical agents on cell proliferation was evaluated. The inhibitory effect of valsartan and candesartan on HHSC proliferation was also evaluated according to steps 1)-3) above. […]

**Q.** CCCCc1nc(Cl)c(CO)n1Cc1ccc(-c2ccccc2-c2nn[nH]n2)cc1 [losartan] was tested. Which “promotion of activated HHSC proliferation by AT-II and LPS, compared to positive control group AL (G2AL)” value did it give?
**A.** statistically significant inhibition
